Where a name gives a salt, the structure may show the parent alone.
Each compound was assayed on bacterial strains that express KPC β-lactamases (assay: Synergy MIC / standard BLI potentiation MIC assay, strains expressing KPC β-lactamases). Settings: at least one KPC strain and/or better spectrum; in the presence of a β-lactam.
Type: cell-based
Procedure: (§1) The experimental protocol was performed according to Clinical and Laboratory Standards Institute (CLSI) guidelines with modifications as described below (CLSI guidelines can be derived from the CLSI document M07-A9 published in January 2012: “Methods for Dilution Antimicrobial Susceptibility Tests for Bacteria That Grow Aerobically; Approved Standard-Ninth Edition”).
(§2) To prepare for MIC testing, frozen glycerol stocks of clinical isolates (Klebsiella pneumoniae, Eschericia coli, Enterobacter spp, Citrobacter spp, or Pseudomonas aeruginosa) were used to streak for isolated colonies on rich, non-selective, tryptic soy agar containing 5% sheep's blood (TSAB). Frozen glycerol stocks of laboratory engineered, isogenic E. coli strains, which contain cloned β-lactamase expressing plasmids were used to streak for isolated colonies on rich, selective LB agar supplemented with 25 μg/mL tetracycline to maintain the plasmid. All strains were incubated at 37° C. for 18-24 hrs.
(§3) On the day of testing, primary cultures were started by scraping off 5-10 colonies from the TSAB plates containing clinical strains or the tetracycline supplemented LB plates containing engineered strains. The clinical strain material was suspended in ˜5 mL of cation adjusted Mueller Hinton Broth (CAMHB) in 14 mL culture tubes. The engineered strain material was suspended in CAMHB (supplemented with 25 μg/mL tetracycline) in 14 mL culture tubes. All strains were incubated at 37° C. with aeration (200 rpm) for ˜2 hrs until the optical density at 600 nm (OD600) was >0.1.
(§4) The two compound components of the assay were each diluted in CAMHB and added to the 96-well broth microdilution assay plates. 50 μL of the β-lactam was added to each well of the assay plate in 2-fold dilutions with final concentrations ranging from 128 to 0.13 μg/mL. 25 μL of the BLI compound was added to all wells in the broth microdilution plates at a final concentration of 4 μg/mL. Inoculum cultures were prepared by standardizing the primary cultures to OD600=0.1 and then adding 20 μL of the adjusted primary culture per 1 mL CAMHB for clinical strains or CAMHB (supplemented with tetracycline at 100 μg/mL) for engineered strains, so that the final inoculum density was ˜10^5 colony forming units per milliliter. Diluted inoculum cultures were used to inoculate 25 μl, per well in 96-well broth microdilution assay plates. The final volume of each well was 100 μL and contained a β-lactam at different concentrations, a BLI compound at 4 μg/mL concentration, the bacterial culture at an OD600 of approximately 0.001 and when necessary tetracycline at 25 μg/mL.
(§5) Plates were incubated for 18-20 hours at 37° C. with aeration (200 rpm). Following incubation, growth was confirmed visually placing plates over a viewing apparatus (stand with a mirror underneath) and then OD600 was measured using a SpectraMax 340PC384 plate reader (Molecular Devices, Sunnyvale, Calif.). Growth was defined as turbidity that could be detected with the naked eye or achieving minimum OD600 of 0.1. MIC values were defined as the lowest concentration producing no visible turbidity.
The synergy MIC (sMIC) assay determines the concentration of the BLI required to potentiate the activity of a fixed concentration of a β-lactam antibiotic against β-lactamase producing bacterial strains. The experimental protocol was performed according to Clinical and Laboratory Standards Institute (CLSI) guidelines with modifications as described below (CLSI guidelines can be derived from the CLSI document M07-A9 published in January 2012: “Methods for Dilution Antimicrobial Susceptibility Tests for Bacteria That Grow Aerobically; Approved Standard-Ninth Edition”). […]

Question: `N=C(N)NCC(O)c1cc([C@@H]2CC[C@@H]3CN2C(=O)N3OS(=O)(=O)O)no1` (single isomer, unassigned) [Compound 611, (2S,5R)-2-(5-((R*)-2-guanidino-1-hydroxyethyl)isoxazol-3-yl)-7-oxo-1,6-diazabicyclo[3.2.1]octan-6-yl hydrogen sulfate] was tested. Which “activity and/or spectrum of activity against bacterial strains that express KPC β-lactamases, compared with Avibactam” value did it give?
Answer: more active than Avibactam

Question: `N=C(N)NCC(O)c1cc([C@@H]2CC[C@@H]3CN2C(=O)N3OS(=O)(=O)O)no1` (single isomer, unassigned) [Compound 612, (2S,5R)-2-(5-((S*)-2-guanidino-1-hydroxyethyl)isoxazol-3-yl)-7-oxo-1,6-diazabicyclo[3.2.1]octan-6-yl hydrogen sulfate] was tested. Which “activity and/or spectrum of activity against bacterial strains that express KPC β-lactamases, compared with Avibactam” value did it give?
Answer: more active than Avibactam

Question: For `NCc1cc([C@@H]2CC[C@@H]3CN2C(=O)N3OS(=O)(=O)O)no1` [Compound 601, (2S,5R)-2-(5-(aminomethyl)isoxazol-3-yl)-7-oxo-1,6-diazabicyclo[3.2.1]octan-6-yl hydrogen sulfate], which “activity and/or spectrum of activity against bacterial strains that express KPC β-lactamases, compared with Avibactam” value is on record?
Answer: more active than Avibactam

Question: How did the “activity and/or spectrum of activity against bacterial strains that express KPC β-lactamases, compared with Avibactam” value turn out when `N=C(N)NCc1cc([C@@H]2CC[C@@H]3CN2C(=O)N3OS(=O)(=O)O)no1` [Compound 603, (2S,5R)-2-(5-(guanidinomethyl)isoxazol-3-yl)-7-oxo-1,6-diazabicyclo[3.2.1]octan-6-yl hydrogen sulfate] was run?
Answer: more active than Avibactam

Question: Which “activity and/or spectrum of activity against bacterial strains that express KPC β-lactamases, compared with Avibactam” value does the source give for `NCCNC(=O)c1cc([C@@H]2CC[C@@H]3CN2C(=O)N3OS(=O)(=O)O)no1` [Compound 605, (2S,5R)-2-(5-((2-aminoethyl)carbamoyl)isoxazol-3-yl)-7-oxo-1,6-diazabicyclo[3.2.1]octan-6-yl hydrogen sulfate] here?
Answer: more active than Avibactam

Question: Which “activity and/or spectrum of activity against bacterial strains that express KPC β-lactamases, compared with Avibactam” value does the source give for `N=C(N)N1CCC(c2cc([C@@H]3CC[C@@H]4CN3C(=O)N4OS(=O)(=O)O)no2)CC1` [Compound 607, (2S,5R)-2-(5-(1-carbamimidoylpiperidin-4-yl)isoxazol-3-yl)-7-oxo-1,6-diazabicyclo[3.2.1]octan-6-yl hydrogen sulfate] here?
Answer: more active than Avibactam

Question: For `N=C(N)NCCNC(=O)c1cc([C@@H]2CC[C@@H]3CN2C(=O)N3OS(=O)(=O)O)no1` [Compound 608, (2S,5R)-2-(5-((2-guanidinoethyl)carbamoyl)isoxazol-3-yl)-7-oxo-1,6-diazabicyclo[3.2.1]octan-6-yl hydrogen sulfate], which “activity and/or spectrum of activity against bacterial strains that express KPC β-lactamases, compared with Avibactam” value is on record?
Answer: more active than Avibactam

Question: For `O=C1N2C[C@@H](CC[C@H]2c2cc(CCNC3CCNCC3)on2)N1OS(=O)(=O)O` [Compound 609, (2S,5R)-7-oxo-2-(5-(2-(piperidin-4-ylamino)ethyl)isoxazol-3-yl)-1,6-diazabicyclo[3.2.1]octan-6-yl hydrogen sulfate], which “activity and/or spectrum of activity against bacterial strains that express KPC β-lactamases, compared with Avibactam” value is on record?
Answer: more active than Avibactam

Question: With `N=C(N)N1CCC(NCCc2cc([C@@H]3CC[C@@H]4CN3C(=O)N4OS(=O)(=O)O)no2)CC1` [Compound 610, (2S,5R)-2-(5-(2-((1-carbamimidoylpiperidin-4-yl)amino)ethyl)isoxazol-3-yl)-7-oxo-1,6-diazabicyclo[3.2.1]octan-6-yl hydrogen sulfate] as the compound, how does the “activity and/or spectrum of activity against bacterial strains that express KPC β-lactamases, compared with Avibactam” value read?
Answer: more active than Avibactam

Question: Which “activity and/or spectrum of activity against bacterial strains that express KPC β-lactamases, compared with Avibactam” value does the source give for `N=C(N)NC1(Cc2cc([C@@H]3CC[C@@H]4CN3C(=O)N4OS(=O)(=O)O)no2)CC1` [Compound 613, (2S,5R)-2-(5-((1-guanidinocyclopropyl)methyl)isoxazol-3-yl)-7-oxo-1,6-diazabicyclo[3.2.1]octan-6-yl hydrogen sulfate] here?
Answer: more active than Avibactam

Question: Which “activity and/or spectrum of activity against bacterial strains that express KPC β-lactamases, compared with Avibactam” value does the source give for `N=C(N)NCCCc1cc([C@@H]2CC[C@@H]3CN2C(=O)N3OS(=O)(=O)O)no1` [Compound 615, (2S,5R)-2-(5-(3-guanidinopropyl)isoxazol-3-yl)-7-oxo-1,6-diazabicyclo[3.2.1]octan-6-yl hydrogen sulfate] here?
Answer: more active than Avibactam

Question: `N[C@H]1C[C@@H](c2cc([C@@H]3CC[C@@H]4CN3C(=O)N4OS(=O)(=O)O)no2)C1` [Compound 616, (2S,5R)-2-(5-((1s,3R)-3-aminocyclobutyl)isoxazol-3-yl)-7-oxo-1,6-diazabicyclo[3.2.1]octan-6-yl hydrogen sulfate] was tested. Which “activity and/or spectrum of activity against bacterial strains that express KPC β-lactamases, compared with Avibactam” value did it give?
Answer: more active than Avibactam

Question: With `N=C(N)N[C@H]1C[C@@H](c2cc([C@@H]3CC[C@@H]4CN3C(=O)N4OS(=O)(=O)O)no2)C1` [Compound 617, (2S,5R)-2-(5-((1s,3R)-3-guanidinocyclobutyl)isoxazol-3-yl)-7-oxo-1,6-diazabicyclo[3.2.1]octan-6-yl hydrogen sulfate] as the compound, how does the “activity and/or spectrum of activity against bacterial strains that express KPC β-lactamases, compared with Avibactam” value read?
Answer: more active than Avibactam

Question: `NCCNCCc1cc([C@@H]2CC[C@@H]3CN2C(=O)N3OS(=O)(=O)O)no1` [Compound 620, (2S,5R)-2-(5-(2-((2-aminoethyl)amino)ethyl)isoxazol-3-yl)-7-oxo-1,6-diazabicyclo[3.2.1]octan-6-yl hydrogen sulfate] was tested. Which “activity and/or spectrum of activity against bacterial strains that express KPC β-lactamases, compared with Avibactam” value did it give?
Answer: more active than Avibactam

Question: With `N=C(N)NCCNCCc1cc([C@@H]2CC[C@@H]3CN2C(=O)N3OS(=O)(=O)O)no1` [Compound 621, (2S,5R)-2-(5-(2-((2-guanidinoethyl)amino)ethyl)isoxazol-3-yl)-7-oxo-1,6-diazabicyclo[3.2.1]octan-6-yl hydrogen sulfate] as the compound, how does the “activity and/or spectrum of activity against bacterial strains that express KPC β-lactamases, compared with Avibactam” value read?
Answer: more active than Avibactam

Question: How did the “activity and/or spectrum of activity against bacterial strains that express KPC β-lactamases, compared with Avibactam” value turn out when `O=C1N2C[C@@H](CC[C@H]2c2cc(CNC3CNC3)on2)N1OS(=O)(=O)O` [Compound 622, (2S,5R)-2-(5-((azetidin-3-ylamino)methyl)isoxazol-3-yl)-7-oxo-1,6-diazabicyclo[3.2.1]octan-6-yl hydrogen sulfate] was run?
Answer: more active than Avibactam

Question: `O=C1N2C[C@@H](CC[C@H]2c2cc(CCNC3CNC3)on2)N1OS(=O)(=O)O` [Compound 623, (2S,5R)-2-(5-(2-(azetidin-3-ylamino)ethyl)isoxazol-3-yl)-7-oxo-1,6-diazabicyclo[3.2.1]octan-6-yl hydrogen sulfate] was tested. Which “activity and/or spectrum of activity against bacterial strains that express KPC β-lactamases, compared with Avibactam” value did it give?
Answer: more active than Avibactam

Question: `O=C1N2C[C@@H](CC[C@H]2c2cc(COC3CNC3)on2)N1OS(=O)(=O)O` [Compound 624, (2S,5R)-2-(5-((azetidin-3-yloxy)methyl)isoxazol-3-yl)-7-oxo-1,6-diazabicyclo[3.2.1]octan-6-yl hydrogen sulfate] was tested. Which “activity and/or spectrum of activity against bacterial strains that express KPC β-lactamases, compared with Avibactam” value did it give?
Answer: more active than Avibactam

Question: Which “activity and/or spectrum of activity against bacterial strains that express KPC β-lactamases, compared with Avibactam” value does the source give for `O=C1N2C[C@@H](CC[C@H]2c2cc(CC3CCNCC3)on2)N1OS(=O)(=O)O` [Compound 627, (2S,5R)-7-oxo-2-(5-(piperidin-4-ylmethyl)isoxazol-3-yl)-1,6-diazabicyclo[3.2.1]octan-6-yl hydrogen sulfate] here?
Answer: more active than Avibactam

Each compound was assayed on bacterial strains that express the class D cephalosporinase OXA-15 (assay: Synergy MIC / standard BLI potentiation MIC assay, strains expressing OXA-15). Settings: in the presence of a β-lactam; comparator Avibactam (CCC).
Type: cell-based, E. coli
Procedure: as §1, §2, §3, §4, §5
The synergy MIC (sMIC) assay determines the concentration of the BLI required to potentiate the activity of a fixed concentration of a β-lactam antibiotic against β-lactamase producing bacterial strains. […]

Question: With `N=C(N)NCC(O)c1cc([C@@H]2CC[C@@H]3CN2C(=O)N3OS(=O)(=O)O)no1` (single isomer, unassigned) [Compound 611, (2S,5R)-2-(5-((R*)-2-guanidino-1-hydroxyethyl)isoxazol-3-yl)-7-oxo-1,6-diazabicyclo[3.2.1]octan-6-yl hydrogen sulfate] as the compound, how does the “activity against bacterial strains that express OXA-15, compared with Avibactam” value read?
Answer: more active than Avibactam

Question: With `N=C(N)NCc1cc([C@@H]2CC[C@@H]3CN2C(=O)N3OS(=O)(=O)O)no1` [Compound 603, (2S,5R)-2-(5-(guanidinomethyl)isoxazol-3-yl)-7-oxo-1,6-diazabicyclo[3.2.1]octan-6-yl hydrogen sulfate] as the compound, how does the “activity against bacterial strains that express OXA-15, compared with Avibactam” value read?
Answer: more active than Avibactam

Reference: patent US8927724B2, “Isoxazole beta-lactamase inhibitors” (priority 2012, dated 2015)
